Measurements: patent US20220133729A1, “COMPOSITIONS AND METHODS FOR TREATING BASAL FOREBRAIN DISEASE” (EIP Pharma, Inc., priority 2019, published 2022)

Key:
Ts2 mice = Ts2 mice treated 28 days with neflamapimod; medial septal nucleus ChAT+ neurons quantitated; type: in vivo; details: 3 mg/kg twice-daily
Experimental: Wild-type (WT) or Ts2 mice treated for 28 days, twice-daily, with vehicle (1% PluronicF108) or 3 mg/kg neflamapimod in vehicle (n=8-10 per group; 1:1 female/male). Treatment initiated at 4.7-6.4 months of age, when cholinergic neuronal loss is developing in Ts2 mice. Cortical Rab5+ endosomal number and size, and medial septal nucleus (MSN) cholineacetyltransferase (ChAT)+ neurons quantitated.

subjects with DLB = test: Phase 2 randomized, double-blind, placebo-controlled study of neflamapimod in subjects with DLB; type: in vivo, human; details: DLB patients
Excerpt: A Phase 2, multi-center, randomized, double-blind, placebo-controlled study is run of neflamapimod versus matching placebo (randomized 1:1) administered with food for 16 weeks in subjects with DLB. The primary objective is to evaluate the effect of neflamapimod on cognitive function as assessed in a study-specific COGSTATE Neuropsychological Test Battery (NTB). Secondary endpoints include the Clinical Dementia Rating Scale-Sum of Boxes (CDR-SB), Mini-Mental State Examination (MMSE), Neuropsychiatric Inventory (NPI-10), Timed Up and Go Test, and electroencephalogram (EEG) as a potential biomarker for DLB.
Neflamapimod 40 mg capsules are administered orally, BID or TID with food for 16 weeks; subjects will follow the BID regimen if weighing <80 kg or the TID regimen if weighing ≥80 kg. A placebo comparator is 40 mg matching placebo capsules administered orally, BID or TID with food for 16 weeks; subjects will follow the BID regimen if weighing <80 kg or the TID regimen if weighing ≥80 kg.
A primary outcome measure is a composite score of a study-specific COGSTATE Neurological Test Battery (NTB) including the COGSTATE Letter Fluency Test and Category Fluency Test at 16 weeks. A change from Baseline to Week 16 in the composite score of a study-specific Cog-state Neurological Test Battery (NTB), including assessments of attention, executive function, and visuospatial function in neflamapimod treated-subjects as compared to the placebo-treated subjects, are analyzed using the Mixed Model Repeated Measures (MMRM) analysis method. The following six tests are included in the composite: (1) COGSTATE Detection test (DET), (2) COGSTATE Identification test (IDN), (3) COGSTATE One Card Learning test (OCL), (4) COGSTATE One Back test (ONB), (5) Letter Fluency Test, (6) Category Fluency Test (CFT). Each score on the individual tests will be converted to a z-score, and then a total z-score will be calculated, in which each test is weighted equally. The change in total z-score in neflamapimod vs. placebo-recipients is analyzed. […]

O=c1ncn2nc(Sc3ccc(F)cc3F)ccc2c1-c1c(Cl)cccc1Cl [neflamapimod]
cholinergic neuron degeneration in the medial septal nucleus (Ts2 mice): ameliorated | morphology (size) of ChAT+ neurons in the medial septal nucleus (MSN) (Ts2 mice; oral): normalizes | ChAT-positive neuron number in the medial septal nucleus (Ts2 mice; oral, stereological quantification): normalizes | Mean change from baseline to Week 8, MMSE (subjects with DLB; 40 mg TID dosing regimen, increase represents improvement, p=0.033 vs placebo): +1.07 | Mean change from baseline to Week 4, Letter Fluency Test (LFT) (subjects with DLB; 40 mg capsules BID or TID, increase represents improvement, p=0.027 vs placebo, preliminary assessment): +3.0 | Mean change from baseline to Week 4, COGSTATE Detection test (DET) (subjects with DLB; 40 mg capsules BID or TID, reduction represents improvement, p=0.031 vs placebo, preliminary assessment): −0.024
